Patent US4440757A, “Pharmaceutical composition comprising derivative of aminobenzoic acid for regulating prostaglandin” (priority 1978, dated 1984)

Tests used:
[1] = test system: lymphocytes from the spleen of a BALB/C mouse; assay: PGs metabolism of 3H-arachidonic acid taken into lymphocytes; assay type: cell-based; design: key: -: no change was observed; ±: change was slightly observed; +: change was clearly observed; settings: 500 μg/ml, 37° C., 60 min
Protocol: After adjusting the lymphocytes taken from the spleen of a BALB/C mouse to a concentration of 1×10^7 cells/ml, 2 μCi of ^3 H-arachidonic acid was added and the mixture was incubated at a temperature of 37° C. for 90 min. The incubated lymphocytes were washed three times with the culture medium. After again ajusting the cells to a concentration of 1×10^7 cells per ml, the culture were poured into four siliconized test tubes in an amount of 2 ml/tube. Two test tubes were used as control, and into each of the remaining two test tubes, 500 μg of the present substance, in this Example, Specimen No. 7 was added, and then the four test tubes were incubated at 37° C. for 60 min. After incubation, the test tubes were centrifugated at 0° C. for 5 min. at 1,200 rpm.
The thus obtained pellets of cells were taken into a vial containing 2 ml of the culture medium and after adding 5 ml of petroleum ether, the vial was shaken and the ether layer was removed, the remaining aqueous layer being adjusted to pH of 3.5 by aqueous 0.5 N hydrochloric acid solution.
The aqueous acidic solution was extracted three times with each 5 ml of ether, and the ether extract was dried to solid. The solid material was subjected to esterification by a solution of diazomethane. The esterified reaction mixture was subjected to thin-layer chromatography and was developed with a 90:50:20:100 (by volume) mixed solvent of ethyl acetate:iso-octane:acetic acid:water. The identification of the thus appeared spots on the chromatogram was carried out by using the following authentic specimens of PGD2, PGE2, PGF2-α and 6-keto-PGF1-α. The silicagel layer of the separated chlomatogram was scraped out and dissolved into a liquid for the liquid scintillator to be counted. From the change of the counts the change of PGS was determined.

[2] = test system: spontaneously hypertensive (SHR) male rats; assay: Effect of indomethacin on the hypotensive action; assay type: in vivo, rat (SHR); settings: 100 mg/kg p.o.; indomethacin 2.5 mg/kg before and after
Excerpt: It is known that PGs are produced from arachidonic acid, and cyclooxygenase participates in the conversion of arachidonic acid to PGG2, that indomethacin inactivates the above-mentioned cyclooxygenase and further that the […] of PGs is completely stopped by the administration of indomethacin.
Accordingly, the transition of blood pressure of the spontaneously hypertensive (SHR) male rats 30 to 40 weeks after birth was compared in both cases (1) where only the present substance was administered at a rate of 100 mg/kg and (2) where indomethacin was administered 2 times at a rate of 2.5 mg/kg/time before and after the administration of the present substance. The present substance, Specimen No. 7, was dissolved into distilled water or dispersed in an aqueous 2% solution of carboxymethylcellulose, and forcibly administered orally. Indomethacin was dispersed in an aqueous 2% solution of carboxymethylcellulose, and the dispersion was also forcibly administered orally, one hour before and after the administration of the present substance.

[3] = test system: sarcoma 180 tumour cells, cyclic AMP; assay: Level of cyclic AMP in tumour cells of sarcoma 180; assay type: cell-based, mouse; settings: room temperature, 5 min
Protocol: The present substance was added to 100 μl of the ascites-type tumour taken from the abdominal cavity of sarcoma 180-bearing mice to be a predetermined concentration, in this case, Specimen No. 7, and the mixture was incubated at room temperature for 5 min. After incubation, the culture was boiled, homogenized and centrifugated to obtain a supernatant liquid. The thus obtained supernatant liquid was subjected to the determination of cyclic AMP by the method of Gilman. […] The participation of the present substance in the metabolism of PGs is presumed also from this fact.

[4] = test system: human dinuclear leukemia J-111 strain; assay: PGs in culture medium of human leukemia cells; assay type: cell-based; settings: 50, 500 or 5,000 μg/ml, 7 days
Protocol: To each 10 ml of a culture medium prepared by adding 10% of bovine foetal serum and one of the present substance, Specimen No. 7, at a concentration of 50, 500 or 5,000 μg/ml to Eagle's culture medium and placed in a polystyrene flask of 75 cm^2 in bottom surface, 5×10^5 cultured cells of human dinuclear leukemia J-111 strain were inoculated and cultured at 37° C. under a mixed atmosphere of 5% by volume of gaseous […] and 95% by volume of air for 7 days. During the cultivation, the culture medium was replaced on the second day and the fourth day with respective fresh ones, and each spent medium was subjected to centrifugation as soon as possible at a temperature of 4° C. at 1,500 rpm to obtain each supernatant liquid of cultured medium. The content of PGE and PGF2-α in each supernatant liquid was determined by ^3 H-Prostaglandin E Radioimmunoassay Kit and ^3 H-Prostaglandin F Radioimmunoassay Kit (manufactured by Clinical assay Co. U.S.A.).

Adenocarcinoma 755 = assay: PGE in tumour of adenocarcinoma 755 and its proliferation; assay type: in vivo, female C57BL/6 mouse; settings: 1 g/kg/day oral
Protocol: Tumour cells of Adenocarcinoma 755 were transplanted subcutaneously to groups of female C57BL/6 mouse of after 8 weeks of birth and while feeding the mice, the present substance, Specimen No. 7, was orally administered every day from the next day of transplantation at a rate of 1 g/kg/day. The mice were sacrificed with ether on 7th or 14th day of transplantation to extirpate the tumour. The thus extirpated tumour was treated by the same procedures as in Example 11 to determine the content of PGE in the tumour.

Sato's lung cancer = assay: Translocation of dye-staff to Sato's lung cancer; assay type: in vivo, donryu rat; settings: 1000 mg/kg p.o. once; control 30.0
Protocol: On the back of a donryu rat, a lump of Sato's lung cancer of 5 mm in size was subcutaneously transplanted.
(§1) On the axillary part of an ICR mouse, 10^6 cells of sarcoma 180 were subcutaneously transplanted. While feeding the both animals, the present substance, Specimen No. 7, was forcibly administered orally once at a rate of 1000 mg/kg on 16th day of the transplantation and an aqueous 2% solution of Lissamine Green (a dye-staff manufactured by Imperial Chem. Ind. Co.) was injected into the caudal vein of the animal at a rate of 1 ml for a rat and 0.5 ml for a mouse.
(§2) After one hour of the injection, the animal was sacrificed to extirpate the proliferated tumour. The tumour of the rat was finely cut and homogenized with an aqueous 50% solution of ethanol. After diluting the homogenate with an addition of the solution to a total volume of 50 ml, the liquid was centrifugated for 15 min at 1000 rpm to separate the supernatant liquid. The content of the dye-staff was determined on the supernatant liquid itself or after dilution by spectrophotometry using its absorption maximum of 630 nm.

sarcoma 180 = assay: Translocation of dye-staff to sarcoma 180 (visual); assay type: in vivo, ICR mouse; settings: 1000 mg/kg p.o. once
Protocol: as §1, §2

O=C(O)c1ccc(NC2OC[C@@H](O)[C@H](O)[C@H]2O)cc1 (stereo partly drawn) [Specimen No. 7, Sodium p-aminobenzoate-N--D-xyloside]
Change of 6-keto-PGF1-α [1]: ±
Change of PGD2 [1]: +
Change of PGE2 [1]: +
Change of PGF2-α [1]: ±
hypotensive effect with indomethacin (FIG. 9) [2]: disappeared
level of cyclic AMP in tumour cells (FIG. 10) [3]: raising the level of cyclic AMP in the tumour cells of sarcoma 180
rate of decrease of PGE (FIG. 13) [4]: the rate of decrease of PGE was raised as the concentration of the present substance was increased
rate of increase of PGF2-α (FIG. 12) [4]: the rate of increase of PGF2-α was reduced as the concentration of the present substance was increased
Content of PGE in tumour (Adenocarcinoma 755; 7th day, control 0.67): 2.83 ng/g
Weight of tumour (Adenocarcinoma 755; 7th day, control 1.34): 1.04 g
Content of PGE in tumour (Adenocarcinoma 755; 14th day, control 0.34): 1.15 ng/g
Weight of tumour (Adenocarcinoma 755; 14th day, control 4.01): 3.10 g
Amount of dye-staff (Sato's lung cancer): 51.0 μg/g tumour
sedimentation of the dye-staff in the central part of the tumour (visual) (sarcoma 180): remarkable sedimentation of the dye-staff in the central part of the tumour
